Laboratory results published in patent US20240343704A1, “HALO-SUBSTITUTED AMINO PYRIDINE COMPOUNDS AS INHIBITORS OF THE HAEMATOPOIETIC PROGENITOR KINASE 1 (HPK1)” (priority 2021, published 2024).

Target: T1, Recombinant (1-346) HPK1 (h) (Homo sapiens, UniProt Q92918)
T1 construct: Recombinant (1-346) HPK1 (h) is incubated with 8 mM MOPS pH 7.0
T1 sequence (Q92918 1-346): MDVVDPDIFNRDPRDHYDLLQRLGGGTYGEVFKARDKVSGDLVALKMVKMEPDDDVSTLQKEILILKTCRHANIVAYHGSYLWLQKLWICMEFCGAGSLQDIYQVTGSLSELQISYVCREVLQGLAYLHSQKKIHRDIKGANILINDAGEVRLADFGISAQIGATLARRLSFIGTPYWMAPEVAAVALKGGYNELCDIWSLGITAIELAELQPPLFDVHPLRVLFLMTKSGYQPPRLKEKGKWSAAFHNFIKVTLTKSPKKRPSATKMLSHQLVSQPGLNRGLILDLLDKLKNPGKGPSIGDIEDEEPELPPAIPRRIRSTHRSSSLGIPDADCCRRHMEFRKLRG
Experiment: HPK1 Human STE Kinase Enzymatic Radiometric Assay
Format: biochemical
Settings: read-out: HPK1 IC50 nM Range*
Description: A stock solution of 10 mM of test compound is prepared in DMSO. The compound plate was prepared by 3-fold and 9-point serial dilutions. […] The reaction is initiated by The addition of the Mg/ATP mix. After incubation for 40 minutes at RT, the reaction is stopped by the addition of phosphoric acid to a concentration of 0.5%.

Compound | IC50
CN(C)Cc1cc(-c2cc(-c3cc(F)c4c(c3)CCNC4=O)c(N)nc2F)ccc1N1CCOCC1 [I-486, 6-(2-amino-5-(3-((dimethylamino)methyl)-4-morpholinophenyl)-6-fluoropyridin-3-yl)-8-fluoro-3,4-dihydroisoquinolin-1(2H)-one] | 0.1 to 10 nM
CN(C)Cc1cc(-c2cc(-c3ccc4c(c3)CCNC4=O)c(N)nc2F)ccc1N1CCSCC1 [I-487, 6-(2-amino-5-(3-((dimethylamino)methyl)-4-thiomorpholinophenyl)-6-fluoropyridin-3-yl)-3,4-dihydroisoquinolin-1(2H)-one] | 0.1 to 10 nM
CN(C)Cc1cc(-c2cc(-c3cc4c(cc3F)C(=O)NCC4)c(N)nc2F)ccc1N1CCSCC1 [I-488, 6-(2-amino-5-(3-((dimethylamino)methyl)-4-thiomorpholinophenyl)-6-fluoropyridin-3-yl)-7-fluoro-3,4-dihydroisoquinolin-1(2H)-one] | 0.1 to 10 nM
CC(C)N1CCN(c2ccc(-c3cc(-c4cc(F)c5c(=O)[nH]cc(Cl)c5c4)c(N)nc3F)cc2)CC1 [I-489, 6-(2-amino-6-fluoro-5-(4-(4-isopropylpiperazin-1-yl)phenyl)pyridin-3-yl)-4-chloro-8-fluoroisoquinolin-1(2H)-one] | 0.1 to 10 nM
Cc1nc2cc(-c3cc(-c4ccc(C5CCOCC5)c(CN(C)C)c4)c(F)nc3N)cc(F)c2c(=O)[nH]1 [I-490, 7-(2-amino-5-(3-((dimethylamino)methyl)-4-(tetrahydro-2H-pyran-4-yl)phenyl)-6-fluoropyridin-3-yl)-5-fluoro-2-methylquinazolin-4(3H)-one] | 11 to 100 nM
Nc1nc(F)c(-c2ccc(N3CCOCC3)c(CN3CCCC3)c2)cc1-c1ccc2c(c1)CCNC2=O [I-491, 6-(2-amino-6-fluoro-5-(4-morpholino-3-(pyrrolidin-1-ylmethyl)phenyl)pyridin-3-yl)-3,4-dihydroisoquinolin-1(2H)-one] | 11 to 100 nM
Nc1nc(F)c(-c2ccc(N3CCOCC3)c(CN3CCCC3)c2)cc1-c1cc2c(cc1F)C(=O)NCC2 [I-492, 6-(2-amino-6-fluoro-5-(4-morpholino-3-(pyrrolidin-1-ylmethyl)phenyl)pyridin-3-yl)-7-fluoro-3,4-dihydroisoquinolin-1(2H)-one] | 11 to 100 nM
CN(C)Cc1cc(-c2cc(-c3ccc4c(c3)CCNC4=O)c(N)nc2F)ccc1N1CCS(=O)(=O)CC1 [I-493, 6-(2-amino-5-(3-((dimethylamino)methyl)-4-(1,1-dioxidothiomorpholino)phenyl)-6-fluoropyridin-3-yl)-3,4-dihydroisoquinolin-1(2H)-one] | 11 to 100 nM
CN(C)Cc1cc(-c2cc(-c3cc4c(cc3F)C(=O)NCC4)c(N)nc2F)ccc1N1CCN(C2CC2)CC1 [I-494, 6-(2-amino-5-(4-(4-cyclopropylpiperazin-1-yl)-3-((dimethylamino)methyl)phenyl)-6-fluoropyridin-3-yl)-7-fluoro-3,4-dihydroisoquinolin-1(2H)-one] | 11 to 100 nM
CN(C)Cc1cc(-c2cc(-c3ccc4c(c3)CCNC4=O)c(N)nc2F)ccc1N1CCN(C2CC2)CC1 [I-495, 6-(2-amino-5-(4-(4-cyclopropylpiperazin-1-yl)-3-((dimethylamino)methyl)phenyl)-6-fluoropyridin-3-yl)-3,4-dihydroisoquinolin-1(2H)-one] | 11 to 100 nM
Nc1nc(F)c(-c2ccc(N3CCOCC3)c(CN3CCOCC3)c2)cc1-c1ccc2c(c1)CCNC2=O [I-496, 6-(2-amino-6-fluoro-5-(4-morpholino-3-(morpholinomethyl)phenyl)pyridin-3-yl)-3,4-dihydroisoquinolin-1(2H)-one] | 11 to 100 nM
Nc1nc(F)c(-c2ccc(N3CCOCC3)c(CN3CCOCC3)c2)cc1-c1cc2c(cc1F)C(=O)NCC2 [I-497, 6-(2-amino-6-fluoro-5-(4-morpholino-3-(morpholinomethyl)phenyl)pyridin-3-yl)-7-fluoro-3,4-dihydroisoquinolin-1(2H)-one] | 11 to 100 nM
CN(C)Cc1cc(-c2cc(-c3cc4c(cc3F)C(=O)NCC4)c(N)nc2F)ccc1N1CCS(=O)(=O)CC1 [I-498, 6-(2-amino-5-(3-((dimethylamino)methyl)-4-(1,1-dioxidothiomorpholino)phenyl)-6-fluoropyridin-3-yl)-7-fluoro-3,4-dihydroisoquinolin-1(2H)-one] | 11 to 100 nM
C[C@@H]1CN(c2ccc(-c3cc(-c4ccc5c(=O)[nH]cc(F)c5c4)c(N)nc3F)cc2)C[C@H](C)N1C [I-499, 6-(2-amino-6-fluoro-5-(4-((3R,5S)-3,4,5-trimethylpiperazin-1-yl)phenyl)pyridin-3-yl)-4-fluoroisoquinolin-1(2H)-one] | 0.1 to 10 nM
Cc1nc2cc(-c3cc(-c4ccc(N5C[C@@H](C)N(C)[C@@H](C)C5)cc4)c(F)nc3N)ccc2c(=O)[nH]1 [I-500, 7-(2-amino-6-fluoro-5-(4-((3R,5S)-3,4,5-trimethylpiperazin-1-yl)phenyl)pyridin-3-yl)-2-methylquinazolin-4(3H)-one] | 11 to 100 nM
Cc1nc2cc(-c3cc(-c4ccc(N5C[C@@H](C)N(C)[C@@H](C)C5)cc4)c(F)nc3N)cc(F)c2c(=O)[nH]1 [I-501, 7-(2-amino-6-fluoro-5-(4-((3R,5S)-3,4,5-trimethylpiperazin-1-yl)phenyl)pyridin-3-yl)-5-fluoro-2-methylquinazolin-4(3H)-one] | 11 to 100 nM
Cc1c[nH]c(=O)c2ccc(-c3cc(-c4ccc(N5CCOCC5)c(CN(C)C)c4)c(F)nc3N)cc12 [I-502, 6-(2-amino-5-(3-((dimethylamino)methyl)-4-morpholinophenyl)-6-fluoropyridin-3-yl)-4-methylisoquinolin-1(2H)-one] | 0.1 to 10 nM
Cc1cc2cc(-c3cc(-c4ccc(C5CCOCC5)c(CN(C)C)c4)c(F)nc3N)cc(F)c2c(=O)[nH]1 [I-504, 6-(2-amino-5-(3-((dimethylamino)methyl)-4-(tetrahydro-2H-pyran-4-yl)phenyl)-6-fluoropyridin-3-yl)-8-fluoro-3-methylisoquinolin-1(2H)-one] | 11 to 100 nM
Cc1cc2cc(-c3cc(-c4ccc(N5CCOCC5)c(CN(C)C)c4)c(F)nc3N)cc(F)c2c(=O)[nH]1 [I-505, 6-(2-amino-5-(3-((dimethylamino)methyl)-4-morpholinophenyl)-6-fluoropyridin-3-yl)-8-fluoro-3-methylisoquinolin-1(2H)-one] | 11 to 100 nM
CN(C)Cc1cc(-c2cc(-c3ccc4c(c3)CCNC4=O)c(N)nc2F)ccc1OCC1CC1 [I-506, 6-(2-amino-5-(4-(cyclopropylmethoxy)-3-((dimethylamino)methyl)phenyl)-6-fluoropyridin-3-yl)-3,4-dihydroisoquinolin-1(2H)-one] | 11 to 100 nM
CN(C)Cc1cc(-c2cc(-c3cc4c(cc3F)C(=O)NCC4)c(N)nc2F)ccc1OCC1CC1 [I-507, 6-(2-amino-5-(4-(cyclopropylmethoxy)-3-((dimethylamino)methyl)phenyl)-6-fluoropyridin-3-yl)-7-fluoro-3,4-dihydroisoquinolin-1(2H)-one] | 11 to 100 nM
COC1CCN(Cc2cc(-c3cc(-c4ccc5c(c4)CCNC5=O)c(N)nc3F)ccc2OCC2CC2)CC1 [I-508, 6-(2-amino-5-(4-(cyclopropylmethoxy)-3-((4-methoxypiperidin-1-yl)methyl)phenyl)-6-fluoropyridin-3-yl)-3,4-dihydroisoquinolin-1(2H)-one] | 11 to 100 nM
COC1CCN(Cc2cc(-c3cc(-c4cc5c(cc4F)C(=O)NCC5)c(N)nc3F)ccc2OCC2CC2)CC1 [I-509, 6-(2-amino-5-(4-(cyclopropylmethoxy)-3-((4-methoxypiperidin-1-yl)methyl)phenyl)-6-fluoropyridin-3-yl)-7-fluoro-3,4-dihydroisoquinolin-1(2H)-one] | 11 to 100 nM
COC1CCN(Cc2cc(-c3cc(-c4ccc5c(c4)CCNC5=O)c(N)nc3F)ccc2N2CCOCC2)CC1 [I-510, 6-(2-amino-6-fluoro-5-(3-((4-methoxypiperidin-1-yl)methyl)-4-morpholinophenyl)pyridin-3-yl)-3,4-dihydroisoquinolin-1(2H)-one] | 11 to 100 nM
COC1CCN(Cc2cc(-c3cc(-c4cc5c(cc4F)C(=O)NCC5)c(N)nc3F)ccc2N2CCOCC2)CC1 [I-511, 6-(2-amino-6-fluoro-5-(3-((4-methoxypiperidin-1-yl)methyl)-4-morpholinophenyl)pyridin-3-yl)-7-fluoro-3,4-dihydroisoquinolin-1(2H)-one] | 11 to 100 nM
COC1CCN(Cc2cc(-c3cc(-c4ccc5c(c4)CCNC5=O)c(N)nc3F)ccc2N2CCSCC2)CC1 [I-512, 6-(2-amino-6-fluoro-5-(3-((4-methoxypiperidin-1-yl)methyl)-4-thiomorpholinophenyl)pyridin-3-yl)-3,4-dihydroisoquinolin-1(2H)-one] | 11 to 100 nM
COC1CCN(Cc2cc(-c3cc(-c4cc5c(cc4F)C(=O)NCC5)c(N)nc3F)ccc2N2CCSCC2)CC1 [I-513, 6-(2-amino-6-fluoro-5-(3-((4-methoxypiperidin-1-yl)methyl)-4-thiomorpholinophenyl)pyridin-3-yl)-7-fluoro-3,4-dihydroisoquinolin-1(2H)-one] | 11 to 100 nM
Nc1nc(F)c(-c2ccc(C3=CCOCC3)cc2C=O)cc1-c1cc2c(cc1F)C(=O)NCC2 [I-514, 2-(6-amino-2-fluoro-5-(7-fluoro-1-oxo-1,2,3,4-tetrahydroisoquinolin-6-yl)pyridin-3-yl)-5-(3,6-dihydro-2H-pyran-4-yl)benzaldehyde] | 101 to 1000 nM
